Consider eleven compounds from patent US20230219965A1 (KSQ Therapeutics, Inc., priority 2020, published 2023).

Where two headings read alike, the source gives them in different places. Bounds are passed on as bounds.

Data set [1] in a line: Liver microsomal metabolic stability, human liver microsomes (HLM). To be noted: human, liver microsomes. Background: Liver microsomes are vesicles of endoplasmic reticulum, rich in cytochrome P450 enzymes.
Protocol: (§1) Samples were prepared by adding 222.5 μL of a master solution (100 mM phosphate buffer and 1 mg/mL liver microsomes (HLM or RLM)) and 25 μL of a 10 mM NADPH solution to incubation plates, which were then warmed for 10 min. Each compound was separately dissolved in DMSO to prepare 10 mM stock solutions, which were then diluted to 100 μM with acetonitrile. A reaction was started by adding 2.5 μL of the 100 μM solution of each compound to separate incubation plates such that the final concentration of for each compound in each plate was 1 μM.
(§2) 25 μL aliquots of each sample were taken at 0.5, 5, 10, 15, 20 and 30 minutes, and the reaction was stopped by adding 5 volumes of cold acetonitrile with IS (100 nM alprazolam, 200 nM caffeine and 100 nM tolbutamide). The samples were then centrifuged at 3,220 G for 30 minutes, and 100 μL of the supernatant fluid was mixed with 100 μL of ultra-pure H2O.
(§3) The samples were then analyzed by LC-MS/MS. Peak areas were determined from extracted ion chromatograms. Slope values (k) were determined by linear regression of the natural logarithm of the remaining percentage of the compound vs. incubation time curve. The in vitro half-life (in vitro t1/2) was determined from the slope value using the following equation:
Data set [2] can be described thus: ADME solubility determination in PBS at pH 2.0 and pH 7.4. In kind it is physicochemical. The settings on record: phosphate buffered saline, 25 °C, thermodynamic from solid. The method in brief: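 Solubility was read by LC-MS/MS on centrifuged supernatants, calibrated to a known-concentration standard and corrected for dilution. Compound, dried down from 10 mM DMSO stock, was equilibrated 24 h at 25° C with shaking in PBS at pH 2.0 or pH 7.4.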

The subject of data set [3] is Ub-PCNA levels in the nucleus of ES2 cells (USP1 activity). Description: ES2 Ub-PCNA immunofluorescence (IF) assay. The settings on record: Homo sapiens, ES-2; ES2 cells, 3 hours, Ub-PCNA immunofluorescence; read-out: USP1 IC50 (Ub-PCNA). Type of data set: cell-based. The method, then:
USP1 is a deubiquitinating enzyme that removes ubiquitin from mono-ubiquitinated Proliferating Cell Nuclear Antigen (Ub-PCNA). The levels of Ub-PCNA in the nucleus of cells can be used to assess the activity of USP1. An immunofluorescence assay can be established to monitor Ub-PCNA levels in the ovarian cancer cell line, ES2.
An assay can be performed by first plating 5000 ES2 cells per well in black 96 well plates (Corning #3904) and then incubating overnight at 37° C. and 5% CO2. Compounds, resuspended in DMSO, can be added to the cells, to a final DMSO concentration of 0.3%. Plates can be incubated at 37° C. and 5% CO2 for 3 hours.
Cells can be then fixed and stained by first removing the media from each plate and fixing the cells with −20° C. methanol for 5 minutes at room temperature. Fixation plates can be washed with Tris buffered saline with tween (Boston Bioproducts #IBB-855) 5 times for 5 minutes each. Plates can be blocked for 1 hour with 50 μl of Odyssey blocking buffer (Licor #327-50000) at room temperature with rocking. Block can be removed from all wells and 50 μl of primary antibody was added to each well. Ub-PCNA ab (Cell Signaling Technology #13439) can be diluted at 1:400 in Odyssey blocking buffer. Plates can be sealed and incubated overnight at 4° C. Primary antibodies can be removed from the plates and plates can be washed with Tris buffered saline with tween 5 times for 5 minutes. Plates can be stained for 1 hour at room temperature with rocking with 50 μl of secondary antibodies diluted 1:10,000 in Odyssey blocking buffer at room temperature (anti-rabbit Alexa 488). Antibodies can be removed from the plates and plates can be washed with Tris buffered saline with tween 3 times for 5 minutes. Plates can be washed once with DAPI (Chemometec #910-3012) stain diluted 1:5000 (Stock solution of 500 μg/ml) in tris buffered saline with tween for 5 minutes. DAPI stain can be removed and plates can be washed one additional time for 5 minutes with tris buffered saline with tween. Wash can be removed from the plate and 100 μl tris buffered saline with tween can be added back to all wells, Plates can be sealed with Foil seals or black plate seals and plates can be stored at 4° C. until they can be imaged.
Imaging of the plates can be performed by first locating the nuclei using the DAPI stain. A mask can be created by drawing a circle slightly smaller than each nucleus. Ub-PCNA intensities can be measured for each individual nucleus counted. A histogram of all Ub-PCNA nuclear intensities measured in untreated wells can be generated and a 95% cutoff can be established. This 95% cutoff can be used to determine the number of Positive cells that have Ub-PCNA values higher than the 95% cutoff. The number of positive cells can be expressed as a percentage by dividing by the total number of cells in the well. This percent positive value can be used to graph all data and to determine AC50 values.
USP1 is a deubiquitinating enzyme that removes ubiquitin from mono-ubiquitinated
Proliferating Cell Nuclear Antigen (Ub-PCNA). The levels of Ub-PCNA in the nucleus of cells was used to assess the activity of USP1. An immunofluorescence assay was established to monitor Ub-PCNA levels in the ovarian cancer cell line, ES2.
This assay was performed by first plating 5000 ES2 cells per well in black 96 well plates (Corning #3904) and then incubated overnight at 37° C. and 5% CO2. Compounds, resuspended in DMSO, were added to the cells, to a final DMSO concentration of 0.3%. Plates were incubated at 37° C. and 5% CO2 for 3 hours.
Cells were then fixed and stained by first removing the media from each plate and fixing the cells with −20° C. methanol for 5 minutes at room temperature. Following fixation plates were washed with Tris buffered saline with tween (Boston Bioproducts ABB-855) 5 times for 5 minutes each. Plates were blocked for 1 hour with 50μ.1 of Odyssey blocking buffer (Licor #327-50000) at room temperature with rocking. […]

A short description of data set [4]: Liver microsomal metabolic stability, rat liver microsomes (RLM). To be noted: rat, liver microsomes, t1/2 (min) in RLM, 1 μM compound, 1 mg/mL microsomes, NADPH.
Protocol: as §1, §2, §3
For a further data set, the target named is USP1/UAF1 enzyme (Homo sapiens, UniProt O94782). Put plainly: USP1/UAF1 deubiquitination assay (ubiquitin-rhodamine 110 substrate). To be noted: read-out: USP1 IC50 (Ub-Rho). In kind it is biochemical. In a few lines:
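Cleavage of 150 nM ubiquitin-rhodamine 110 by 0.05 nM USP1/UAF1 was followed as fluorescence (Ex480/Em540, kinetic, 30 min) in Tris-HCl pH 7.8 buffer with EDTA, BSA, DTT and Tween-20. Compounds, top 10 μM, were preincubated with enzyme 10 min; % inhibition against no-enzyme and DMSO wells gave four-parameter IC50s.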

[5] abbreviates: pH 2, aqueous buffer, PBS pH 2.0, 25° C., read-out: Solubility at pH 2.0.
[6] abbreviates: pH 7.4, aqueous buffer, PBS pH 7.4, 25° C., read-out: Solubility at pH 7.4.

Sequence of USP1/UAF1 enzyme (O94782 whole entry): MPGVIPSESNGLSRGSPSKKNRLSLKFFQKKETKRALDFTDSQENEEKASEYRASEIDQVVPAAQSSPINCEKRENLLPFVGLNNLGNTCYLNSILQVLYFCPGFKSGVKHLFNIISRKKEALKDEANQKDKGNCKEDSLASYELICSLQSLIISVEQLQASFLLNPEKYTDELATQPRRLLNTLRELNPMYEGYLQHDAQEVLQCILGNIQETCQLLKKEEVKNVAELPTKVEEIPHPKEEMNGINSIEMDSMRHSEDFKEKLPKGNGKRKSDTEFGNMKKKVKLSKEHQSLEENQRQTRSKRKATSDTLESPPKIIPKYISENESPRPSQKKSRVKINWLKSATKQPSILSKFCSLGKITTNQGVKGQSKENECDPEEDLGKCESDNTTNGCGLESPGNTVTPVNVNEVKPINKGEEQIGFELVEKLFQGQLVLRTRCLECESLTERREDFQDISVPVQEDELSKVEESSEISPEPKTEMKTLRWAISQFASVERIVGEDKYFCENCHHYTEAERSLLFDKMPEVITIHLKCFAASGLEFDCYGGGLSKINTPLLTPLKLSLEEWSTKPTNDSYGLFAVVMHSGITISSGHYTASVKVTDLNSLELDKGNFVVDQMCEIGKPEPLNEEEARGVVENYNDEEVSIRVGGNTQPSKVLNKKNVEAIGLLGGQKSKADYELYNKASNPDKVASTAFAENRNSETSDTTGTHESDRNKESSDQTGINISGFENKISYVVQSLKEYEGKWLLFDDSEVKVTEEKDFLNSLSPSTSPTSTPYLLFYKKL
Sequence of USP1/UAF1 enzyme (Q8TAF3 whole entry partner): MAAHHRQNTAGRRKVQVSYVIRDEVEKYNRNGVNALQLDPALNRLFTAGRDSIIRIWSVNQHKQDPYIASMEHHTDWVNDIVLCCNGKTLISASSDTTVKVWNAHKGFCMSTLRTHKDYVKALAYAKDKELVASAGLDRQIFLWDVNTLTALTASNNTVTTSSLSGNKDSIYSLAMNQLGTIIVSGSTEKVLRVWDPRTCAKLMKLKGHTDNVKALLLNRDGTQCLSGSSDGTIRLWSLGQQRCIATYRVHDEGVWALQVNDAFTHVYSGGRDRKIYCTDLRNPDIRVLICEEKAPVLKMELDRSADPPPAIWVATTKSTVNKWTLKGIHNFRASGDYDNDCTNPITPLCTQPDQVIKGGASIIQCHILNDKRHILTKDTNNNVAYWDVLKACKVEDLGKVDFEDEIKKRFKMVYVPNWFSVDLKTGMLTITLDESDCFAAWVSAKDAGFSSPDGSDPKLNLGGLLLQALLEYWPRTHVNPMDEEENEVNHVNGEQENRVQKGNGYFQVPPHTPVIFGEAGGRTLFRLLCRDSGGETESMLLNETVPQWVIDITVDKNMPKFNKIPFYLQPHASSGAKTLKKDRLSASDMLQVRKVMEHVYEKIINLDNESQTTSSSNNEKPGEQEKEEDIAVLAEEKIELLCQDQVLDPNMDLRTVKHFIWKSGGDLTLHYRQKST

As to `CCn1cc(C(F)(F)F)nc1-c1ccc([C@H](C)n2c(=O)ccn3nc(-c4c(OC)ncnc4C4CC4)cc23)cc1F` (single isomer, unassigned) [Example 334], the half-life at 1 μM in data set [1] and in data set [4] was over 25 min throughout. Besides, the solubility at 24 h in data set [2] (setting [5]) and in data set [2] (setting [6]) was under 10 µM throughout. Besides, the IC50 in data set [3] is 0.1 to 0.5 µM; on USP1/UAF1 enzyme it was under 0.1 µM.

`CCn1cc(C(F)(F)F)nc1-c1ccc(CN2C(=O)[C@H](C)Cn3nc(-c4c(OC)ncnc4C4CC4)nc32)cc1F` (single isomer, unassigned) [Example 348]: the half-life at 1 μM in data set [1] and in data set [4] was over 25 min each time. Also, the solubility at 24 h in data set [2] (setting [5]) and in data set [2] (setting [6]) was at least 10 µM throughout. Besides, the IC50 (in data set [3]; at USP1/UAF1 enzyme) was under 0.1 µM each time.

With `CCn1cc(C(F)(F)F)nc1-c1ccc(CN2C(=O)[C@@H](C)Cn3nc(-c4c(OC)ncnc4C4CC4)nc32)cc1F` (single isomer, unassigned) [Example 349], the half-life at 1 μM in data set [1] and in data set [4] was over 25 min in each case. The solubility at 24 h is at least 10 µM in data set [2] (setting [5]) and under 10 µM in data set [2] (setting [6]). Further, the IC50 (in data set [3]; on USP1/UAF1 enzyme) was under 0.1 µM throughout.

With `COc1ncnc(C2CC2)c1-c1cc2n(n1)CCC(=O)N2Cc1ccc(-c2nc(C(F)(F)F)cn2C)cc1` [Example 1, 2-(4-cyclopropyl-6-methoxypyrimidin-5-yl)-4-(4-(1-methyl-4-(trifluoromethyl)-1H-imidazol-2-yl)benzyl)-6,7-dihydropyrazolo[1,5-α]pyrimidin-5(4H)-one], the half-life at 1 μM in data set [1] and in data set [4] was over 25 min in each case. Besides, the solubility at 24 h in data set [2] (setting [5]) is at least 10 µM; in data set [2] (setting [6]) it was under 10 µM. Besides, the IC50 in data set [3] was 0.1 to 0.5 µM; at USP1/UAF1 enzyme, under 0.1 µM.

On to `COc1ncnc(C2CC2)c1-c1cc2n(n1)CCC(=O)N2Cc1ccc(-c2nc(C(F)(F)F)cn2C)c(F)c1` [Example 2, 2-(4-cyclopropyl-6-methoxypyrimidin-5-yl)-4-(3-fluoro-4-(1-methyl-4-(trifluoromethyl)-1H-imidazol-2-yl)benzyl)-6,7-dihydropyrazolo[1,5-a]pyrimidin-5(4H)-one], for which the half-life at 1 μM in data set [1] and in data set [4] was over 25 min each time. Moreover, the solubility at 24 h in data set [2] (setting [5]) and in data set [2] (setting [6]) was under 10 µM each time. For the same compound, the values for the IC50 (in data set [3]; on USP1/UAF1 enzyme) were 0.1 to 0.5 µM and under 0.1 µM, respectively.

Turning to `Cc1cnn(C(C)C)c1-c1cc2n(n1)CCC(=O)N2Cc1ccc(-c2nc(C(F)(F)F)cn2C)cc1` [Example 6, 2-(1-isopropyl-4-methyl-1H-pyrazol-5-yl)-4-(4-(1-methyl-4-(trifluoromethyl)-1H-imidazol-2-yl)benzyl)-6,7-dihydropyrazolo[1,5-a]pyrimidin-5(4H)-one], the half-life at 1 μM in data set [1] and in data set [4] was under 25 min in each case. The solubility at 24 h in data set [2] (setting [5]) and in data set [2] (setting [6]) was at least 10 µM throughout. In addition, the IC50 in data set [3] was over 0.5 µM; on USP1/UAF1 enzyme it was under 0.1 µM.

Consider `COc1ncnc(C2CC2)c1-c1cc2n(n1)CCC(=O)N2Cc1ccc(-n2nc(C(F)(F)F)cc2OC)c(F)c1` [Example 7, 2-(4-cyclopropyl-6-methoxypyrimidin-5-yl)-4-(3-fluoro-4-(5-methoxy-3-(trifluoromethyl)-1H-pyrazol-1-yl)benzyl)-6,7-dihydropyrazolo[1,5-a]pyrimidin-5(4H)-one], for which the half-life at 1 μM in data set [1] and in data set [4] was over 25 min in each case. For the same compound, the solubility at 24 h in data set [2] (setting [5]) and in data set [2] (setting [6]) was under 10 µM each time. For the same compound, the values for the IC50 (in data set [3]; on USP1/UAF1 enzyme) were 0.1 to 0.5 µM and under 0.1 µM, respectively.

`CCn1cc(C(F)(F)F)nc1-c1ccc(CN2C(=O)CCn3nc(-c4c(C)cnn4C(C)C)cc32)cc1` [Example 9, 4-(4-(1-ethyl-4-(trifluoromethyl)-1H-imidazol-2-yl)benzyl)-2-(1-isopropyl-4-methyl-1H-pyrazol-5-yl)-6,7-dihydropyrazolo[1,5-a]pyrimidin-5(4H)-one]: the half-life at 1 μM in data set [1] and in data set [4] was under 25 min in each case. Besides, the solubility at 24 h in data set [2] (setting [5]) and in data set [2] (setting [6]) was at least 10 µM in each case. Besides, the IC50 (in data set [3]; at USP1/UAF1 enzyme) was under 0.1 µM in each case.

Consider `Cc1cnn(C(C)C)c1-c1cc2n(n1)CCC(=O)N2Cc1ccc(-n2nc(C(F)(F)F)cc2C)cc1` [Example 10, 2-(1-isopropyl-4-methyl-1H-pyrazol-5-yl)-4-(4-(5-methyl-3-(trifluoromethyl)-1H-pyrazol-1-yl)benzyl)-6,7-dihydropyrazolo[1,5-a]pyrimidin-5(4H)-one], for which the half-life at 1 μM in data set [1] and in data set [4] was under 25 min each time. The solubility at 24 h in data set [2] (setting [5]) and in data set [2] (setting [6]) was under 10 µM each time. For the same compound, the IC50 in data set [3] is 0.1 to 0.5 µM; at USP1/UAF1 enzyme, under 0.1 µM.

Consider `Cc1cnn(C(C)C)c1-c1cc2n(n1)CCC(=O)N2Cc1ccc(-c2nc(C(F)(F)F)nn2C)cc1` [Example 11, 2-(1-isopropyl-4-methyl-1H-pyrazol-5-yl)-4-(4-(1-methyl-3-(trifluoromethyl)-1H-1,2,4-triazol-5-yl)benzyl)-6,7-dihydropyrazolo[1,5-a]pyrimidin-5(4H)-one], for which the half-life at 1 μM in data set [1] and in data set [4] was under 25 min throughout. Further, the solubility at 24 h in data set [2] (setting [5]) was at least 10 µM; in data set [2] (setting [6]), under 10 µM. In addition, the IC50 (in data set [3]; at USP1/UAF1 enzyme) was over 0.5 µM in each case.

Consider `COc1cc(C(F)(F)F)nn1-c1ccc(CN2C(=O)CCn3nc(-c4c(C)cnn4C(C)C)cc32)cc1F` [Example 12, 4-(3-fluoro-4-(5-methoxy-3-(trifluoromethyl)-1H-pyrazol-1-yl)benzyl)-2-(1-isopropyl-4-methyl-1H-pyrazol-5-yl)-6,7-dihydropyrazolo[1,5-a]pyrimidin-5(4H)-one], for which the half-life at 1 μM in data set [1] and in data set [4] was under 25 min each time. For the same compound, the solubility at 24 h in data set [2] (setting [5]) and in data set [2] (setting [6]) was under 10 µM throughout. The IC50 is 0.1 to 0.5 µM in data set [3] and under 0.1 µM at USP1/UAF1 enzyme.

Usually half-life stands for how long it takes for the measured level to halve. What is called solubility is the concentration that dissolves in the medium under given conditions. In general, IC50 refers to the point on the concentration scale where inhibition reaches its midpoint.
